According to US11433053B2, “LSD1 inhibitor and preparation method and application thereof” (CSPC ZHONGQI PHARMACEUTICAL TECHNOLOGY (SHIJIAZHUANG) CO., …, priority 2017, dated 2022):

Columns and labels:
[1] = Pharmacokinetic evaluation in C57BL/6 mice after intravenous and oral administration; assay type: in vivo; conditions: male, mouse, plasma; for Cmax / clearance / half-life / Vd: IV 1 mg/kg; for Cmax: oral 2 mg/kg, route of Cmax not stated, read-out: max concentration Cmax; for clearance: read-out: clearance CL; for half-life: read-out: half-life T1/2 (IV, h) (converted); for Vd: read-out: volumes of distribution Vdss; for bioavailability: PO 2 mg/kg vs IV 1 mg/kg, read-out: bioavailability F (%); for AUC(0-t): PO 2 mg/kg, read-out: the area under the plasma concentration-time curve AUC0-last PO
Procedure: Experimental purposes: To test the pharmacokinetics of compounds in C57BL/6 mice
C57BL/6 mice (male, 7-9 weeks old, Shanghai Slack)
Test the pharmacokinetics characteristics of rodents after intravenous and oral administration in accordance with standard protocols, and the candidate compound was formulated into a clear solution in the experiment. The mice were administered by intravenous injection and orally once. The intravenous and oral vehicle is a 10% aqueous solution of hydroxypropyl β-cyclodextrin or a physiological saline solution. Six male C57BL/6 mice were employed in this assay, three of them were administered intravenously at a dose of 1 mg/kg, plasma samples were collected at 0 h (before administration) and 0.0833, 0.25, 0.5, 1, 2, 4, 7, 24 h after administration. Another three mice were administered by oral gavage at a dose of 2 mg/kg, plasma samples were collected at 0 h (before administration) and 0.5, 1, 2, 3, 4, 6, 24 h after administration. Collect whole blood samples within 24 hours, centrifuge at 3000 g for 15 minutes, separate the supernatant to obtain a plasma sample, 4 times volume of the internal standard acetonitrile solution was added to precipitate the protein. Centrifuge the supernatant and add an equal volume of water and centrifuge to take the supernatant. LC-MS/MS was used to quantitatively analyze plasma concentrations and calculate pharmacokinetic parameters such as max concentration (Cmax), clearance (CL), half-life (T1/2), volumes of distribution (Vdss), the area under the plasma concentration-time curve (AUC0-last), bioavailability (F), etc.

H1417 cells = assay: Cell proliferation inhibitory activity on H1417 cells (CellTiter-Glo, 10 days); assay type: cell-based, human; conditions: Homo sapiens; for IC50: NCI-H1417, 240 h, H1417 cells, 10 days incubation; for Emax: NCI-H1417, H1417 cells, highest percentage inhibition of cell viability, read-out: Maximum inhibition percentage (%)
Procedure: Experimental purposes: To test the proliferation inhibitory activities of the test compounds on H1417 cells.
Experimental materials: RPMI 1640 medium, fetal bovine serum, Promega CellTiter-Glo reagent. The H1417 cell line purchased from ATCC. Envision Multi-Label Analyzer (PerkinElmer).
Experimental method: H1417 cells were seeded in a black 384-well plate, 1000 cells per well in […] of cell suspension. The test compounds were diluted 3-fold with Epmotion to the 10th concentration i.e, the compounds were diluted from 10 mmol to […], and a double duplicate well experiment was set. 198 μL medium was added to the middle plate, according to the corresponding position, 2 μL gradient diluted compounds were added to the middle plate. The mixture was mixed evenly and transferred 20 μL per well to the cell plates. The cell plates were incubated in a carbon dioxide incubator for 10 days. 25 μL of Promega CellTiter-Glo reagent per well was added to the cell plate and the mixture was incubated for 10 minutes at room temperature to stabilize the luminescence signal. Readings were performed by PerkinElmer Envision multi-label analyzer.
Data analysis: The original data was converted to the inhibition rate by the equation (Max-Ratio)/(Max-Min)*100%, and the value of IC50 can be obtained by curve fitting with four parameters. (Model 205 in XLFIT5, iDBS)
The growth inhibitory activities of the test compounds on H1417 cells were classified as + for IC50≤100 nM; ++ for IC50>100 nM and ≤500 nM; +++ for IC50>500 nM and ≤1000 nM; the highest percentage inhibition of cell viability was classified as: […]; 90%>B≥70%; 70%>C≥50%.

human LSD1 = human LSD1 (Homo sapiens (Human), UniProt O60341); assay: Evaluation of enzyme activity: LSD1 fluorescence coupling enzyme assay (HRP/Amplex Red); assay type: biochemical; conditions: human LSD1, histone H3(1-21)K4me2 peptide 10 μM, 30 min pre-incubation
Procedure, shortened: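 Human LSD1 preincubated 30 min with compound, then reacted with H3(1-21)K4me2 peptide (10 μM). FAD-dependent H2O2 detected via HRP/Amplex Red fluorescence (Ex/Em 535/590). Ten-dose, 3-fold dilutions in duplicate from 10 μM gave IC50s, binned into activity classes.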

SMILES | Cmax [1] [ng/mL] | clearance [1] [mL/min/kg] | half-life [1] [h] | Vd [1] [L/kg] | bioavailability [1] [%] | AUC(0-t) [1] [µM·h] | IC50 (H1417 cells) [nM] | IC50 (human LSD1) [nM] | Emax (H1417 cells) [%]
N#Cc1ccc(-c2nc(C3(CN[C@H]4CC4c4ccccc4)CC3)no2)cc1 (stereo partly shown) [Example 64] | 1290 | 21.9 | 1.3 | 1.9 | 44 | 1.88 | 100 to 500 | ≤ 50 | 90 to 100
Clc1ccc(-c2nc(C3(CN[C@H]4CC4c4ccccc4)CC3)no2)cc1 (stereo partly shown) [Example 65] | 2070 | 10.6 | 4.2 | 3 | 49 | 3.38 | 100 to 500 | ≤ 50 | 90 to 100
FC(F)(F)c1ccc(-c2nc(C3(CN[C@H]4CC4c4ccccc4)CC3)no2)cn1 (stereo partly shown) [Example 66] | 2140 | 13.1 | 1.5 | 1.4 | 57 | 3.51 | 500 to 1000 | ≤ 50 | 90 to 100
O=C(O)C12CCC(c3nc(C4(CN[C@H]5CC5c5ccccc5)CC4)no3)(CC1)CC2 (stereo partly shown) [Example 177] | 3210 | 9.9 | 1.6 | 0.5 | 51.5 | 3.86 | 500 to 1000 | – | 50 to 70
O=C(O)c1ccc(CN2CCC3(CC2)CC(c2nc(C4(CN[C@H]5CC5c5ccccc5)CC4)no2)C3)cc1 (stereo partly shown) [Example 206] | – | – | – | – | – | – | 500 to 1000 | 100 to 500 | 50 to 70
c1ccc(C2C[C@@H]2NCC2(CN3CC4CNCC4C3)CC2)cc1 (stereo partly shown) [Example 207] | – | – | – | – | – | – | 500 to 1000 | ≤ 50 | 50 to 70
O=C(O)[C@@H]1CCCN1CC1(CN[C@H]2CC2c2ccccc2)CC1 (stereo partly shown) [Example 210] | 815 | 37.7 | 2.7 | 2.6 | 40.5 | 1.13 | 500 to 1000 | ≤ 50 | 50 to 70
C[C@@H]1CCCN1CC1(CN[C@H]2CC2c2ccccc2)CC1 (stereo partly shown) [Example 213] | – | – | – | – | – | – | 100 to 500 | ≤ 50 | 50 to 70
C[C@@H]1CN(CC2(CN[C@H]3CC3c3ccccc3)CC2)C[C@H](C)N1 (stereo partly shown) [Example 216] | – | – | – | – | – | – | ≤ 100 | 100 to 500 | 90 to 100
C[C@@H]1CN(CC2(CN[C@H]3CC3c3ccccc3)CC2)C[C@H](C)O1 (stereo partly shown) [Example 217] | – | – | – | – | – | – | 500 to 1000 | 100 to 500 | 50 to 70
O=C(O)[C@H](Cc1c[nH]c2ccccc12)NCC1(CN[C@@H]2C[C@H]2c2ccccc2)CC1 [Example 227] | – | – | – | – | – | – | ≤ 100 | 100 to 500 | 50 to 70
c1ccc([C@@H]2C[C@H]2NCC2(CN3CCCNCC3)CC2)cc1 [Example 230] | – | – | – | – | – | – | 100 to 500 | 100 to 500 | 50 to 70
N[C@H]1CC[C@H](c2nc(C3(CN[C@@H]4C[C@H]4c4ccccc4)CCC3)no2)CC1 [Example 233] | – | – | – | – | – | – | 100 to 500 | 100 to 500 | 70 to 90

The next lines start with results.

Cmax [1] [ng/mL] | clearance [1] [mL/min/kg] | half-life [1] [h] | Vd [1] [L/kg] | bioavailability [1] [%] | AUC(0-t) [1] [µM·h] | IC50 (H1417 cells) [nM] | IC50 (human LSD1) [nM] | SMILES | Emax (H1417 cells) [%]
763 | 43.4 | 1 | 0.5 | 20.6 | 0.329 | 500 to 1000 | – | O=C(O)c1ccc(CN2CCC(c3nc(C4(CN[C@@H]5CC5c5ccccc5)CC4)no3)CC2)cc1 (stereo partly shown) [Example 169] | 50 to 70
– | – | – | – | – | – | 100 to 500 | ≤ 50 | O=C(C1CC1)N1CCC(c2nc(C3(CN[C@H]4CC4c4ccccc4)CC3)no2)CC1 (stereo partly shown) [Example 208] | 70 to 90
– | – | – | – | – | – | 100 to 500 | 50 to 100 | N[C@@H]1CCC[C@@H](c2nc(C3(CN[C@@H]4C[C@H]4c4ccccc4)CC3)no2)C1 [Example 214] | 70 to 90
– | – | – | – | – | – | 500 to 1000 | ≤ 50 | c1ccc(C2C[C@@H]2NCC2(c3noc(C4CC5(CCNCC5)C4)n3)CC2)cc1 (stereo partly shown) [Example 219] | 90 to 100
– | – | – | – | – | – | 100 to 500 | 50 to 100 | N[C@@H]1CCC[C@H](c2nc(C3(CN[C@@H]4C[C@H]4c4ccccc4)CC3)no2)C1 [Example 220] | 70 to 90
58.5 | 112 | 2.97 | 21.7 | 35.1 | 0.273 | – | – | CC1(c2nc(C3(CN[C@@H]4C[C@H]4c4ccccc4)CC3)no2)CCC(N)CC1 (stereo partly shown) [Example 224] | –
– | – | – | – | – | – | 100 to 500 | ≤ 50 | N[C@H]1CC[C@H](Cc2nc(C3(CN[C@H]4CC4c4ccccc4)CC3)no2)CC1 (stereo partly shown) [Example 225] | 90 to 100
– | – | – | – | – | – | ≤ 100 | ≤ 50 | O=C(N1CCC(c2nc(C3(CN[C@H]4CC4c4ccccc4)CC3)no2)CC1)C(F)(F)F (stereo partly shown) [Example 226] | 90 to 100
497 | 62.4 | 0.34 | 0.99 | 28 | 0.37 | ≤ 100 | 100 to 500 | O=C(O)C1(CN2CCC(c3nc(C4(CN[C@@H]5C[C@H]5c5ccccc5)CC4)no3)CC2)CCC1 [Example 235] | 70 to 90
– | – | – | – | – | – | ≤ 100 | ≤ 50 | NC1CCC(c2nc(C3(CN[C@@H]4C[C@H]4c4ccccc4)CC3)no2)CC1(F)F (stereo partly shown) [Example 244] | 70 to 90
– | – | – | – | – | – | 500 to 1000 | ≤ 50 | c1ccc([C@@H]2C[C@H]2NCC2(c3noc(N4CCNCC4)n3)CC2)cc1 [Example 246] | 90 to 100
– | – | – | – | – | – | 500 to 1000 | ≤ 50 | CN1CCN(c2nc(C3(CN[C@@H]4C[C@H]4c4ccccc4)CC3)no2)CC1 [Example 247] | 90 to 100
